Like-named read-outs stand apart in the source and are kept apart here. Square brackets hold non-standard residues; d marks the D form. Ends that are not written are not given here. Peptide text beside a SMILES is read from it.
B1: C5a: C5a anaphylatoxin, 74-residue human glycoprotein; human recombinant C5a (Sigma) or natural C5a used as standard (protein, UniProt P01031 678-751, looked up)
C5a anaphylatoxin: TLQKKIEEIAAKYKHSVVKKCCYDGACVNNDETCEQRAARISLGPRCIKAFTECCVVASQLRANISHKDMQLGR
modifications: C5a anaphylatoxin
notes: C5a anaphylatoxin, 74-residue human glycoprotein; human recombinant C5a (Sigma) or natural C5a used as standard

Tests used:
human neutrophils (PMN) [1] = target: T1, human neutrophils (PMN) (Homo sapiens, UniProt P21730); type: cell-based
T1 sequence (P21730 1-350): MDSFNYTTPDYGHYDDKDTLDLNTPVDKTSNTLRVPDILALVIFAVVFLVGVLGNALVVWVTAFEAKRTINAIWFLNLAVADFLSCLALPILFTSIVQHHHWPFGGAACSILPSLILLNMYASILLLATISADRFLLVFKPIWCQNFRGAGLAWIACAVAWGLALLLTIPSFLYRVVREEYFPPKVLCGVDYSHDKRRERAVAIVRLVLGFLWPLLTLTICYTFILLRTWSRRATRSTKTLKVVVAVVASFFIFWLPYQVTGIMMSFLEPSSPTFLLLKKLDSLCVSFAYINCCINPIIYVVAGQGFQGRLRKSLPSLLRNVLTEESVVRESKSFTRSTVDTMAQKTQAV
Description: The release of glucuronidase from human neutrophils was determined as described by Schroder et al. (1987), J. Immunol., 139: 3474-3483. Briefly, human neutrophils were pretreated with cytochalasin B (5 μg/ml, 10 min, 37° C.). The cells (10^6) were incubated in the presence of stimulants for 60 minutes at 37° C. in a final volume of 200 μl and then centrifuged. The supernatant was collected and 50 μl were incubated with 50 μl of 0.01 M P-nitrophenyl-β-D-glucuronide (in 0.1 M sodium acetate at pH 4 for 18 h) as triplicate determinations in 96-well microtiter plates (Corning). The reaction was stopped by addition of 100 μl of 0.4 M gly buffer at pH 10. The reaction developed color that was read at 405 nm in a Titertec Multiscan (MCC/340) ELISA reader. The β-glucuronidase released was expressed as the percentage of total enzyme in the cell that could be released by addition of 0.2% Triton X-100 (Pierce).

guinea-pig platelets = test: Guinea-pig platelet aggregation assay; type: cell-based; conditions: for Platelet Aggreg (threshold concentration producing visible platelet aggregation): guinea-pig platelets, threshold response
Description: This assay was performed on platelets obtained from the arterial blood of anesthetized male Hartley guinea pigs according to previously published methods (Ember et al., 1992, supra). Briefly, platelet-rich plasma was prepared and diluted to 3×10^8 platelets/ml in 0.39% sodium citrate solution. Peptide samples were diluted in a stepwise fashion in 1.5-fold dilutions and placed in 96-well microplates. A […] peptide sample, […] of platelet-rich plasma, and one 3 mm glass bead were placed in each well. The plates were shaken horizontally at 100 rpm for 5 min at 37° C. Platelet aggregation was evaluated visually in an inverted microscope at 40× magnification. The greatest dilution of peptide producing visible aggregation was scored as the threshold concentration for activity. Natural C5a and C3a were included as internal standards. At least three independent duplicate determinations were conducted for every peptide.

human neutrophils (PMN) [2] = target: T1, human neutrophils (PMN); type: cell-based; remark: listed apart in the source
Description: Neutrophil polarization assays were conducted as described by Ember et al., 1992, supra. Human neutrophils (PMN) were prepared according to the procedure described by Dahinden et al. (1979), J. Immunol., 130: 857-862. The assay for measuring the effect of C5a analogs on PMN polarization was described by Haston & Shields (1985), J. Immunol. Methods, 81: 229-237. Briefly, PMN (1×10^6 cells/ml) were suspended in 10 mM 3- (N-morpholino) propane sulfonic acid (Sigma Chemical Co.) containing EBSS. […] After 10 minutes of incubation at room temperature, the cells were washed twice and stored until microscopic examination. Cells deviating from the typical spherical shape were visually scored as polarized. Results are expressed as percent of polarized cells per total cells counted (300 cells counted/sample).

human fetal artery = target: T2, human fetal artery (Homo sapiens, UniProt P21730); test: Smooth muscle contraction of human fetal artery (spasmogenic assay); type: cell-based
T2 sequence (P21730 1-350): T1 sequence (P21730 1-350)
Description: Tissue strips were suspended in 2 ml organ baths, containing physiological salt solution (Krebs-Ringers solution: 118 mM NaCl, 4.7 mM KCl, 2.5 mM CaCl2, 25 mM NaHCO3, 1.2 mM KH2PO4, 1.2 mM MgSO4, 10 mM Glucose) maintained at 37° C., pH 7.4 and continuously aerated with a […] mixture. Each tissue preparation was equilibrated for 1 hr prior to testing with peptides. All drugs were kept on ice during the procedure and isometric tensions were measured using strain-gauge transducers (Grass FT-03) with a computerized chart recording system (MacLab/8). After the contraction to each peptide reached a plateau, histamine (10 μM) was added to obtain the maximum tissue response. Because tachyphylaxis occurs rapidly to single doses of C5a or peptides, cumulative dose-response curves could not be obtained. Instead, the dose-response profile was compiled from multiple strips from each tissue. After exposing each strip to a single concentration of the peptide followed by supramaximal histamine, the response was expressed as a percentage of the maximal contraction to histamine. Full dose-response curves for C5a (human recombinant C5a; Sigma) or individual peptides were performed in each experiment for each tissue and the EC50 values (i.e., concentration of peptide producing 50t of the maximal response to each peptide) obtained by probit analysis. pD2 transforms [−log EC50 (M)] were calculated for each dose-response curve, and means ±SE obtained for each peptide.
Human umbilical cords were obtained from the Mater Misericordiae Hospital, South Brisbane, Queensland within minutes of delivery. The mid-section of the umbilical cord was cut from the placenta, placed in physiological salt solution and stored at 5° C. for up to 24 hrs. […] The fetal arteries were dissected out and cut into longitudinal strips. The intimal surface of the arteries was rubbed with a cotton bud to remove the endothelium. Strips approximately 2 cm×3 mm were suspended in organ baths under 20 mN of resting tension. Arterial strips were tested repeatedly with peptides following a 60 min drug-free period of rest between assays (Taylor et al. (1994), Inflammation, in press).

serum carboxypeptidases = test: Stability toward serum carboxypeptidases (incubation in normal human serum, HPLC); type: in vitro ADME; conditions: 37° C., 1 h
Description: FIG. 10. HPLC profiles of decapeptide analogs. FIG. 10A: HPLC of […] (peptide/Sequence I.D. No. 2); a=purified peptide; b=des-Arg peptide ([…]; Sequence I.D. No. 24); c=des-Arg peptide in saline, no incubation; d=des-Arg peptide in saline with incubation for 1 h at 37° C.; e=des-Arg peptide in normal human serum with incubation for 1 h at 37° C. FIG. 10B: HPLC of […]aR (Sequence I.D. No. 10); a=purified peptide; b=peptide in saline, no incubation; c=peptide in saline with incubation for 1 h at 37° C.; d=peptide in normal human serum with incubation for 1 h at 37° C. Solvent system 1: 70 mM triethylamine/phosphoric acid buffer, pH-2.3. Solvent system 2: 60% acetonitrile in the Solvent 1 buffer. Linear gradient of 30-50% solvent 2 at.1%/min, slope=1 ml/min, absorbance monitored at 214 nm.
Both peptides were incubated in normal human serum at 37° C. for 1 h and thereafter reanalyzed on HPLC.

Molecule	Platelet Aggreg (threshold concentration producing visible platelet aggregation) (guinea-pig platelets)	EC50 (human neutrophils (PMN) [2])	other results
CSCC[C@H](NC(=O)[C@H](CC(=O)O)NC(=O)[C@H](CCCCN)NC(=O)[C@H](Cc1ccccc1)NC(=O)[C@H](CO)NC(=O)[C@@H](N)Cc1ccc(O)cc1)C(=O)N[C@@H](CCC(N)=O)C(=O)N[C@@H](CC(C)C)C(=O)N[C@@H](C)C(=O)N[C@@H](CCCNC(=N)N)C(=O)O [peptide 7]	34 µM	48 µM	EC50 (human neutrophils (PMN) [1]): 1000 µM
CSCC[C@H](NC(=O)[C@H](CC(=O)O)NC(=O)[C@H](CCCCN)NC(=O)[C@H](Cc1ccccc1)NC(=O)[C@H](CO)NC(=O)[C@@H](N)Cc1ccc(O)cc1)C(=O)N[C@@H](CCC(N)=O)C(=O)N[C@@H](CC(C)C)C(=O)N[C@H](C)C(=O)N[C@@H](CCCNC(=N)N)C(=O)O [peptide 8]	20 µM	1.2 µM	EC50 (human neutrophils (PMN) [1]): 32 µM
CC(C)C[C@H](NC(=O)[C@@H]1CCCN1C(=O)[C@H](CS)NC(=O)[C@H](CC(=O)O)NC(=O)[C@H](CCCCN)NC(=O)[C@H](Cc1ccccc1)NC(=O)[C@H](CO)NC(=O)[C@@H](N)Cc1ccc(O)cc1)C(=O)N[C@@H](CS)C(=O)N[C@@H](CCCNC(=N)N)C(=O)O [peptide 17] (H-YSFKDCPLCR-OH; N-terminus assumed)	4.1 µM	224 µM	
CC(C)C[C@@H]1NC(=O)[C@@H]2CCCN2C(=O)[C@@H](NC(=O)[C@H](CC(=O)O)NC(=O)[C@H](CCCCN)NC(=O)[C@H](Cc2ccccc2)NC(=O)[C@H](CO)NC(=O)[C@@H](N)Cc2ccc(O)cc2)CSSC[C@@H](C(=O)N[C@@H](CCCNC(=N)N)C(=O)O)NC1=O [peptide 18] (HELM PEPTIDE1{Y.S.F.K.D.C.P.L.C.R}$PEPTIDE1,PEPTIDE1,6:R3-9:R3$$$V2.0)	>410 µM		
CSCC[C@H](NC(=O)CNC(=O)[C@H](CCCCN)NC(=O)[C@H](Cc1ccccc1)NC(=O)[C@H](CO)NC(=O)[C@@H](N)Cc1ccc(O)cc1)C(=O)N[C@@H](CC(C)C)C(=O)N[C@@H](CC(C)C)C(=O)NCC(=O)N[C@H](CCCNC(=N)N)C(=O)O [peptide 22] (HELM PEPTIDE1{Y.S.F.K.G.M.L.L.G.[dR]}$$$$V2.0; N-terminus and C-terminus assumed)			agonist character compared to natural C5a in spasmogenic assays (human fetal artery; in words): full agonist of diminished potency; antagonist activity against C5a (human fetal artery; tested at concentrations below those causing contraction or aggregation): devoid of any antagonistic activity
ISFKDMQLGR-OH [peptide 1]	86.3 µM		
YSFKDAPLGR-OH [peptide 15]	7.4 µM		
YSFKDCPLGR-OH [peptide 16]	2.3 µM	19.5 µM	
YSFKDMPAGR-OH [peptide 11]	101 µM	215 µM	
YSFKDMPLGR-OH [peptide 5]	6.3 µM		increase in potency in spasmogenic and aggregatory activities relative to peptide 2 (human fetal artery; across spasmogenic and platelet aggregation assays (Tables 2 and 3)): 4- to 10 fold; log potency ratio at the EC50 level compared to C5a (human fetal artery; fetal artery): 2.01±0.12; % of C5a potency (human fetal artery; fetal artery, from log potency ratio at EC50 level): 1%
YSFKDMPPGR-OH [peptide 6]	80 µM	50 µM	EC50 (human neutrophils (PMN) [1]): 700 µM
YSFKDMQIGR [peptide 9]	150 µM		
YSFKDMQLGR [peptide 2]			cleavage of the C-terminal Arg (serum carboxypeptidases): significant cleavage
YSFKDMQLPR-OH [peptide 3]	225 µM	500 µM	
YSFKDMQPGR-OH [peptide 4]	500 µM		
YSFKGLLLGR-OH [peptide 21]	21 µM		
YSFKGMLLGR-OH [peptide 20]	10.5 µM		potency compared with peptide 2 in guinea-pig platelet assay (guinea-pig platelets; in words): about two times more potent; potency compared with peptide 2 in human fetal artery (human fetal artery; in words): about two times more potent
YSFKGMPLGR-OH [peptide 23]	6.3 µM	2 µM	EC50 (human neutrophils (PMN) [1]): 49.6 µM
YSFKPMQLaR (YSFKPMQL[dA]R) [peptide 24]			potency relative to natural C5a for elicitation of a spasmogenic response (Class 1) (human fetal artery; smooth muscle contraction assay, percent of natural/full C5a potency): 20-30%
B1	0.023 µM		EC50 (human neutrophils (PMN) [1]; human neutrophils, β-glucuronidase release, read-out: PMN Enzyme Release EC50): 0.0123 µM; EC50 (human neutrophils (PMN) [2]; human neutrophils, read-out: PMN Polarization EC50): 0.0013 µM; EC50 (human fetal artery; human fetal artery contraction, mean EC50 from individual experiments): 0.018 µM

Reference: patent US6465614B1, “High-affinity response-selective C-terminal analogs of C5a anaphylatoxin” (priority 1994, dated 2002)
